Assay results taken from patent US8703437B2, “Fluorogenic sensors for phospholipase C isozymes” (The University of North Carolina at Chapel Hill, priority 2010, dated 2014).

Molecular target: T1, PLC-γ1 (Homo sapiens, UniProt P19174)
T1 construct: addition of 4 ng of purified full-length wild-type PLC-γ1; made in house; host or cells: insect cells
T1 sequence (P19174 1-1290): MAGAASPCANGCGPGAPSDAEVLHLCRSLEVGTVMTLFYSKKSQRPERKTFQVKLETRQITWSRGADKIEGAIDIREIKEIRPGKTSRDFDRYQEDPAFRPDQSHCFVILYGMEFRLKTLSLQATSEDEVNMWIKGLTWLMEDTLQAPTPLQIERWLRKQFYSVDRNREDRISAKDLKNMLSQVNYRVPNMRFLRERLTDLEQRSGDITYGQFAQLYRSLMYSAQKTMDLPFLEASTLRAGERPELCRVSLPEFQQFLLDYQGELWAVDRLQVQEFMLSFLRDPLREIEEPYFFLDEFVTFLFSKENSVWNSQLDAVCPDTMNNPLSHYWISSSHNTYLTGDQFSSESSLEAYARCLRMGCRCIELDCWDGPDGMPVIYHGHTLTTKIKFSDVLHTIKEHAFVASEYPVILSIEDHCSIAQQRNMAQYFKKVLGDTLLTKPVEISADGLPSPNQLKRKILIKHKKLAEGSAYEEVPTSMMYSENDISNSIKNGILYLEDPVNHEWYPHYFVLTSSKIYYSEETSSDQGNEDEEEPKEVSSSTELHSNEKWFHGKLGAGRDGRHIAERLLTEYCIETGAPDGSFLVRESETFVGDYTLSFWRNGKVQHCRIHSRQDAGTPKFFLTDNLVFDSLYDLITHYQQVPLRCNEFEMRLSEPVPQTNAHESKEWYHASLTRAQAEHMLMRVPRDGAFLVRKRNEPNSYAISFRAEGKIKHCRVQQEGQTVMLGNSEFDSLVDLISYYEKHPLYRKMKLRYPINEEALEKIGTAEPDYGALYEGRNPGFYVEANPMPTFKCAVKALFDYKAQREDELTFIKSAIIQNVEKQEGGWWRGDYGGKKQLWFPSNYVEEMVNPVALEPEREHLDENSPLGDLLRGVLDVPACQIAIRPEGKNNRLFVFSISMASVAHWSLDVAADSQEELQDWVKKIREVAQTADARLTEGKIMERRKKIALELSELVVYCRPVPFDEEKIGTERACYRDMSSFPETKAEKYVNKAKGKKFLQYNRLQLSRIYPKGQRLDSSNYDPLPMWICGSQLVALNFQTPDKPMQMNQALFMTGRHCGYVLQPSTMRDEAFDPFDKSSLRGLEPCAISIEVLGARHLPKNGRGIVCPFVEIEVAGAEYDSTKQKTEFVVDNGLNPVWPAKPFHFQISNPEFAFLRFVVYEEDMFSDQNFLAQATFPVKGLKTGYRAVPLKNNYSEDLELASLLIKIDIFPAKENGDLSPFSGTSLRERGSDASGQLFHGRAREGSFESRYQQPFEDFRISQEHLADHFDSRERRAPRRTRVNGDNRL
Test: Kinetic studies with PLC-γ1
Format: biochemical
Details: endogenous substrate PIP2, [3H]PtdIns-(4,5)P2, liquid scintillation counting, 30° C.
Procedure: For comparison, the endogenous substrate, PIP2, was also applied in the enzymatic reaction under similar conditions.
The assays were started by the addition of 4 ng of purified full-length wild-type PLC-γ1. The reaction mixtures were then incubated at 30° C., and fluorescence was measured continuously as described above. For kinetic studies with the endogenous PIP2, a mixture of PtdIns-(4,5)P2 (300 μM, Avanti Polar Lipids) and ˜10,000 cpm of [^3H]PtdIns-(4,5)P2 was dried under a stream of nitrogen and resuspended in 0.5% cholate. The resulting lipid stock was diluted to obtain final assay conditions with either 280, 160, 80, 24, or 8 μM PtdIns(4,5)P2 in the same buffer as described above in a final volume of 60 μL. Assays were initiated by the addition of 17 ng of purified full-length wild-type PLC-γ1. After incubation at 30° C. at time intervals between 0-8 min, reactions were stopped by the addition of 200 μL of 10% (v/v) trichloroacetic acid (TCA) and 100 μL of 10 mg/mL BSA to precipitate uncleaved lipids and protein. Centrifugation of the reaction mixture isolated soluble [^3H]Ins(1,4,5)P3, which was quantified using liquid scintillation counting.

Q: “phosphatidylinositol 4,5-bisphosphate [PIP2]” was tested. Which Km did it give?
A: 28 ± 2.6 µM

Q: What about the Vmax of the same substance?
A: 2.7 ± 0.07 pmol/min/ng
